Data from patent publication US8426408B2, “Pyrimidine inhibitors of kinases” (AbbVie Inc., priority 2009, dated 2013).
pKi: −log10 of the molar value.

Columns and labels:
Assay type in all cases: biochemical
Aurora B = target: T1, Aurora B (Homo sapiens, UniProt Q96GD4); test: Aurora B enzyme inhibition (time-resolved fluorescence, histone H3 peptide); settings: 1 mM ATP
T1 construct: Active Aurora B enzyme (recombinant residues 1-344)
How it was run: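 IC50s came from an exponential fit of inhibition against inhibitor concentration, with phosphorylation read as the 665/615 nm time-resolved fluorescence ratio after EDTA stop using Eu-anti-phospho-H3 and SA-APC. The 1 h reaction used Aurora B 1-344 plus GST-INCENP, biotin-histone H3 1-21 peptide and 1 mM ATP in pH 7.4 HEPES buffer.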

Aurora A = target: T2, Aurora A (Homo sapiens, UniProt O14965); test: Aurora A enzyme inhibition (time-resolved fluorescence, STK substrate-2); settings: 1 mM ATP
T2 sequence (O14965 1-403): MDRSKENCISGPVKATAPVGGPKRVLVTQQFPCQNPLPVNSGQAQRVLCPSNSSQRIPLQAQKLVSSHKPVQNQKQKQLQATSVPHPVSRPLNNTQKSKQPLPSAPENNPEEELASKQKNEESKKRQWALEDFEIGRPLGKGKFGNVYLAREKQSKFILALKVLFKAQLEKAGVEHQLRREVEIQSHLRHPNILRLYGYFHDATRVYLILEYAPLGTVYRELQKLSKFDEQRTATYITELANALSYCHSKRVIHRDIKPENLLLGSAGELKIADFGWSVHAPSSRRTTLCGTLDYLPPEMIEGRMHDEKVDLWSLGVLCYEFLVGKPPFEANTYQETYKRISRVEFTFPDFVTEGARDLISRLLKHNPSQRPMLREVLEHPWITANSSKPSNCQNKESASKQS
How it was run: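 Phosphorylation of biotinylated STK substrate-2 at 1 mM ATP, 1 h, Hepes buffer pH 7.4 (MgCl2, sodium orthovanadate, Triton X-100). After EDTA quench, 665/615 nm time-resolved fluorescence ratio read via europium anti-phospho antibody and SA-XL665; IC50 from exponential fit versus inhibitor concentration.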

KDR = KDR (Homo sapiens, UniProt P35968); test: KDR HTRF in vitro kinase assay; set-up: purified enzyme (His6-KDR 789-1354, MW 63 kD); His6 (N); settings: 1 mM ATP; read-out: KDR enzyme inhibition data (Ki)
How it was run: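 His6-KDR 789-1354 (7 ng/well) with 0.5 μM biotinylated peptide substrate and 1 mM ATP in HEPES pH 7.1, MgCl2/MnCl2, 60 min at room temperature. EDTA-quenched, detected by streptavidin-XL-665 plus Eu-kryptate anti-phosphotyrosine HTRF after 3 h; IC50 from 620/665 nm ratio.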

Measured: pKi

Chain of KDR (P35968 789-1354): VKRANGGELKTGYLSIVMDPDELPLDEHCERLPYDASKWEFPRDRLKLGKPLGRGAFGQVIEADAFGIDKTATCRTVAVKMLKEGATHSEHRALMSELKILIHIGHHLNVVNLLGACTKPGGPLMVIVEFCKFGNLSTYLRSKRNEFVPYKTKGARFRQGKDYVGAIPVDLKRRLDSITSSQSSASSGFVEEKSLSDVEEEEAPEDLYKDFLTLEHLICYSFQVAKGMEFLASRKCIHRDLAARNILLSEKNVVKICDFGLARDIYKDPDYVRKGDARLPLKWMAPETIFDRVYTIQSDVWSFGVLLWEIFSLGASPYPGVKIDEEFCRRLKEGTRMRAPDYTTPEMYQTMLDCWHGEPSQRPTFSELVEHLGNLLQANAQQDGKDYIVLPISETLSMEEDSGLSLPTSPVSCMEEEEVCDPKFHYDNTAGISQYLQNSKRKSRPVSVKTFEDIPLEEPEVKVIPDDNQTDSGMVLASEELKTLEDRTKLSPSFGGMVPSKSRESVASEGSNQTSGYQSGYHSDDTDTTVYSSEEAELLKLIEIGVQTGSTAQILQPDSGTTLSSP
T1 sequence (Q96GD4 whole entry, the tested form may be a part): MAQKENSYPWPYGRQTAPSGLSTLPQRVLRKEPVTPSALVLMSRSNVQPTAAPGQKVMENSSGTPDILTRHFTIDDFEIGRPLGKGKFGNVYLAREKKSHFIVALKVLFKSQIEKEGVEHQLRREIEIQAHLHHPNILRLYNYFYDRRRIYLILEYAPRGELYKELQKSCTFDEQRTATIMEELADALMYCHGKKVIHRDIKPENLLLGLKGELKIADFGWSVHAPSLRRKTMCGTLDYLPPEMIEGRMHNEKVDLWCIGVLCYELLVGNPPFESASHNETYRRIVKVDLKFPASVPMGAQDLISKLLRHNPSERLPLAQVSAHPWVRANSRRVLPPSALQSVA
T1 sequence (Q9NQS7 826-918 partner limits assumed): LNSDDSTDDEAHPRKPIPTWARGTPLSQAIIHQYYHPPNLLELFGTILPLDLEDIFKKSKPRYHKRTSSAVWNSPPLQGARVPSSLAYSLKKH

CNC(=O)Cn1cc(Nc2ncc(Cl)c(N[C@H]3[C@@H](C(N)=O)[C@@H]4C=C[C@H]3C4)n2)cn1 [Example 75, (1S,2S,3R,4R)-3-{[5-chloro-2-({1-[2-(methylamino)-2-oxoethyl]-1H-pyrazol-4-yl}amino)pyrimidin-4-yl]amino}bicyclo[2.2.1]hept-5-ene-2-carboxamide]
> 7.00: all assays above

NC(=O)Cn1cc(Nc2ncc(Br)c(N[C@H]3[C@@H](C(N)=O)[C@@H]4C=C[C@H]3C4)n2)cn1 [Example 76, (1S,2S,3R,4R)-3-[(2-{[1-(2-amino-2-oxoethyl)-1H-pyrazol-4-yl]amino}-5-bromopyrimidin-4-yl)amino]bicyclo[2.2.1]hept-5-ene-2-carboxamide]
> 7.00: all assays above

CNC(=O)Cn1cc(Nc2ncc(Br)c(N[C@H]3[C@@H](C(N)=O)[C@@H]4C=C[C@H]3C4)n2)cn1 [Example 77, (1S,2S,3R,4R)-3-{[5-bromo-2-({1-[2-(methylamino)-2-oxoethyl]-1H-pyrazol-4-yl}amino)pyrimidin-4-yl]amino}bicyclo[2.2.1]hept-5-ene-2-carboxamide]
> 7.00: all assays above

CC(C)OC(=O)Cn1cc(Nc2ncc(Cl)c(N[C@H]3[C@@H](C(N)=O)[C@@H]4C=C[C@H]3C4)n2)cn1 [Example 78, isopropyl{4-[(4-{[(1R,2R,3S,4S)-3-(aminocarbonyl)bicyclo[2.2.1]hept-5-ene-2-yl]amino}-5-chloropyrimidin-2-yl)amino]-1H-pyrazol-1-yl}acetate]
> 7.00: all assays above

CCn1cc(Nc2ncc(Br)c(N[C@H]3[C@@H](C(N)=O)[C@@H]4C=C[C@H]3C4)n2)cn1 [Example 79, (1S,2S,3R,4R)-3-({5-bromo-2-[(1-ethyl-1H-pyrazol-4-yl)amino]pyrimidin-4-yl}amino)bicyclo[2.2.1]hept-5-ene-2-carboxamide]
> 7.00: all assays above

CCn1cc(Nc2ncc(C(F)(F)F)c(N[C@@H]3[C@H]4CC[C@H](C4)[C@@H]3C(N)=O)n2)cn1 [Example 80, (1R,2S,3R,4S)-3-{[2-[(1-ethyl-1H-pyrazol-4-yl)amino]-5-(trifluoromethyl)pyrimidin-4-yl]amino}bicyclo[2.2.1]heptane-2-carboxamide]
> 7.00: all assays above

NC(=O)[C@@H]1[C@H](Nc2nc(Nc3cnn(C4CNC4)c3)ncc2Cl)[C@H]2C=C[C@@H]1C2 [Example 81, (1S,2S,3R,4R)-3-({2-[(1-azetidin-3-yl-1H-pyrazol-4-yl)amino]-5-chloropyrimidin-4-yl}amino)bicyclo[2.2.1]hept-5-ene-2-carboxamide]
> 7.00: all assays above

NC(=O)[C@@H]1[C@H](Nc2nc(Nc3cnn(C4CCNCC4)c3)ncc2Cl)[C@H]2C=C[C@@H]1C2 [Example 82, (1S,2S,3R,4R)-3-({5-chloro-2-[(1-piperidin-4-yl-1H-pyrazol-4-yl)amino]pyrimidin-4-yl}amino)bicyclo[2.2.1]hept-5-ene-2-carboxamide]
> 7.00: all assays above

NC(=O)[C@@H]1[C@H](Nc2nc(Nc3cnn([C@H]4CCCNC4)c3)ncc2Cl)[C@H]2C=C[C@@H]1C2 [Example 83, (1S,2S,3R,4R)-3-{[5-chloro-2-({1-[(3S)-piperidin-3-yl]-1H-pyrazol-4-yl}amino)pyrimidin-4-yl]amino}bicyclo[2.2.1]hept-5-ene-2-carboxamide]
> 7.00: all assays above

NC(=O)[C@@H]1[C@H](Nc2nc(Nc3cnn([C@@H]4CCCNC4)c3)ncc2Cl)[C@H]2C=C[C@@H]1C2 [Example 84, (1S,2S,3R,4R)-3-{[5-chloro-2-({1-[(3R)-piperidin-3-yl]-1H-pyrazol-4-yl}amino)pyrimidin-4-yl]amino}bicyclo[2.2.1]hept-5-ene-2-carboxamide]
> 7.00: all assays above

CC(=O)NCC(=O)N1CCC(n2cc(Nc3ncc(Cl)c(N[C@H]4[C@@H](C(N)=O)[C@@H]5C=C[C@H]4C5)n3)cn2)CC1 [Example 85, (1S,2S,3R,4R)-3-{[2-({1-[1-(N-acetylglycyl)piperidin-4-yl]-1H-pyrazol-4-yl}amino)-5-chloropyrimidin-4-yl]amino}bicyclo[2.2.1]hept-5-ene-2-carboxamide]
> 7.00: all assays above

(1S,2S,3R,4R)-3-[(5-chloro-2-{[1-(1-methylpiperidin-4-yl)-1H-pyrazol-4-yl]amino}pyrimidin-4-yl)amino]bicyclo[2.2.1]hept-5-ene-2-carboxamide and (1R,2R,3S,4S)-3-[(5-chloro-2-{[1-(1-methylpiperidin-4-yl)-1H-pyrazol-4-yl]amino}pyrimidin-4-yl)amino]bicyclo[2.2.1]hept-5-ene-2-carboxamide [Example 40]
> 7.00: all assays above

(1S,2S,3R,4R)-3-[(5-chloro-2-{[1-(2-morpholin-4-ylethyl)-1H-pyrazol-4-yl]amino}pyrimidin-4-yl)amino]bicyclo[2.2.1]hept-5-ene-2-carboxamide and (1R,2R,3S,4S)-3-[(5-chloro-2-{[1-(2-morpholin-4-ylethyl)-1H-pyrazol-4-yl]amino}pyrimidin-4-yl)amino]bicyclo[2.2.1]hept-5-ene-2-carboxamide [Example 37]
> 7.00: all assays above

(1S,2S,3R,4R)-3-{[5-chloro-2-({1-[2-(4-methylpiperazin-1-yl)ethyl]-1H-pyrazol-4-yl}amino)pyrimidin-4-yl]amino}bicyclo[2.2.1]hept-5-ene-2-carboxamide and (1R,2R,3S,4S)-3-{[5-chloro-2-({1-[2-(4-methylpiperazin-1-yl)ethyl]-1H-pyrazol-4-yl}amino)pyrimidin-4-yl]amino}bicyclo[2.2.1]hept-5-ene-2-carboxamide [Example 46]
> 7.00: all assays above

(1S,2S,3R,4R)—N-cyclopropyl-3-{[2-[(1-methyl-1H-pyrazol-4-yl)amino]-5-(trifluoromethyl)pyrimidin-4-yl]amino}bicyclo[2.2.1]hept-5-ene-2-carboxamide and (1R,2R,3S,4S)—N-cyclopropyl-3-{[2-[(1-methyl-1H-pyrazol-4-yl)amino]-5-(trifluoromethyl)pyrimidin-4-yl]amino}bicyclo[2.2.1]hept-5-ene-2-carboxamide [Example 70]
> 7.00: all assays above
